According to patent US7572439B2, “Enzyme disruption of bacterial biofilms” (priority 2002, dated 2009):

Experiments:
[1] = tested on: Methicillin Sensitive S. aureus; experiment: Treatment of established infection in jugular vein catheterized mice; format: in vivo; conditions: Table 4, MSSA, Nafcillin (50) b.i.d. 4 days
Method: Jugular vein catheterized mice (Charles River Labs) were used. The mice were challenged through the tail vein with S. aureus (10^3-10^4CFU, a much lower dose than the 5×10^6 CFU or greater typically necessary to establish an infection in mice not catheterized). Treatment began four days post challenge when infection was established. Lysostaphin was administered through the indwelling catheter in a volume of 200 μ PBS (in the case of methicillin resistant S. aureus, nafcillin was added to the treatment). After the final treatment of the day, 50 μl of a lock solution (50% sterile glucose solution) with lysostaphin (and nafcillin, when used), added at the same concentration as used for treatment, was put in the catheters. Control mice received equal treatments with PBS and lock solution alone.
On the day following the last treatment the liver, heart and a portion of the catheter in the heart were harvested. The catheter portions were sonicated to release bacteria.

[2] = tested on: biofilms of S. aureus SA113; experiment: Kinetic effect on established biofilms: absorbance at 650 nm and safranin staining; format: cell-based; conditions: for effect on established biofilms (safranin): 400 μg/ml oxacillin or 800 μg/ml vancomycin, PBS or TSB, 24 hours; for absorbance of biofilms at 650 nM: as much as 400 μg/ml oxacillin or 800 μg/ml vancomycin in PBS; for absorbance of biofilms at 650 nM / effect on S. aureus biofilms (FIG. 8 legend): twenty four hours; for effect on absorbance of biofilms: in TSB, 24 hours (data not shown); for effect on S. aureus biofilms (FIG. 8 legend): PBS or bacterial media
Method: Oxacillin and vancomycin have often been used in antibiotic susceptibility studies of S. aureus biofilms. […] Twenty four-hour biofilms in polystyrene 96-well tissue culture plates were treated with serial dilutions of lysostaphin, oxacillin, and vancomycin (FIG. 7).
In order to examine the kinetic effect of lysostaphin, oxacillin and vancomycin on biofilms, the absorbance of established biofilms in a 96-well tissue culture plate was measured over time (0-3 hrs and 24 hrs). Tissue culture wells containing biofilms of S. aureus SA113 were incubated with serial dilutions of lysostaphin ([…]), oxacillin ([…]), or vancomycin ([…]) for 24 hours, and the absorbance at 650 nm was monitored every 20 minutes for the first 3 hours and then again at 24 hours. The absorbance of the lysostaphin-treated biofilms dropped from approximately 0.35 at time zero to 0.125 after 3 hours of treatment and dropped to near base line (0.04) by 24 hrs when treated with a dose of lysostaphin of 6.25 μg/ml in PBS (FIG. 7). […] Since antimicrobials like oxacillin or vancomycin are effective against actively metabolizing bacteria, a similar experiment was conducted but the biofilms were incubated with the three anti-microbials in bacterial media (TSB). Very similar results were also found when the assay was conducted in TSB rather than PBS.
The capacity of the three agents to disrupt S. aureus biofilms in polystyrene wells can be visualized by comparing the staining intensity of treated wells versus control (buffer-treated) wells.

CCOc1ccc2ccccc2c1C(=O)N[C@@H]1C(=O)N2[C@@H]1SC(C)(C)[C@@H]2C(=O)O [Nafcillin, nafcillin, reference compound]
S. aureus recovered, Heart [1]: 0 CFU

Cc1onc(-c2ccccc2)c1C(=O)N[C@@H]1C(=O)N2[C@@H]1SC(C)(C)[C@@H]2C(=O)O [oxacillin]
effect on established biofilms (safranin) [2]: no obvious effect
absorbance of biofilms at 650 nM [2]: around 0.325
effect on absorbance of biofilms [2]: little or no effect
effect on absorbance of S. aureus biofilms over time (FIG. 7 legend) ([2]; lysostaphin 6.25 cg/ml, vancomycin 800 cg/ml, oxacillin 400 cg/ml): no effect
effect on S. aureus biofilms (FIG. 8 legend) ([2]; oxacillin 1.6-400 cg/ml, vancomycin 3.2-800 cg/ml): no effect

CN[C@H](CC(C)C)C(=O)N[C@H]1C(=O)N[C@@H](CC(N)=O)C(=O)N[C@H]2C(=O)N[C@H]3C(=O)N[C@H](C(=O)N[C@H](C(=O)O)c4cc(O)cc(O)c4-c4cc3ccc4O)[C@H](O)c3ccc(c(Cl)c3)Oc3cc2cc(c3O[C@@H]2O[C@H](CO)[C@@H](O)[C@H](O)[C@H]2O[C@H]2C[C@](C)(N)[C@H](O)[C@H](C)O2)Oc2ccc(cc2Cl)[C@H]1O [vancomycin]
effect on established biofilms (safranin) [2]: no obvious effect
absorbance of biofilms at 650 nM [2]: around 0.325
effect on absorbance of biofilms [2]: little or no effect
effect on absorbance of S. aureus biofilms over time (FIG. 7 legend) ([2]; lysostaphin 6.25 μg/ml, vancomycin 800 μg/ml, oxacillin 400 μg/ml): no effect
effect on S. aureus biofilms (FIG. 8 legend) ([2]; oxacillin 1.6-400 μg/ml, vancomycin 3.2-800 μg/ml): no effect
